{"source": "patent US20070178581A1", "about": "“Screening method and apparatus for identifying a reactive compound bonding with a target compound” (SHIMADZU CORPORATION, priority 2006, published 2007)", "tested_on": "WGA (wheat germ lectin)", "experiment": "Bonding of reactive compound with WGA, analysed by elution from the size-excluding first dimension column", "format": "binding", "conditions": "50 mM phosphoric acid buffer pH 6.8/0.8% NaCl, 25° C.", "protocol": "FIGS. 8A and 8B show the results of the analysis of the components eluted in the first dimension column in the example shown in FIG. 5. […] The sample used consisted of WGA (1 mg/mL) for the target compound or protein, and p-nitrophenyl-di-N-acetyl-β-chitobioside (0.1 mg/mL) for the reactive compounds. For the first dimension mobile phase, 50 mM phosphoric acid buffer (pH 6.8)/0.8% NaCl solution was used, which was fed at the rate of 0.05 mL/minute. For the first dimension column 10a, a silica-based size-excluding DIOL column (product of Shimadzu Corporation) of 150 mm in length and 2 mm in internal diameter was used, while setting the column oven temperature at 25° C. In the measurements that produced the chromatogram shown in FIG. 8B, 30 μL of WGA or protein was suctioned by the sample injection nozzle 32a, and then 5 μL of p-nitrophenyl-di-N-acetyl-β-chitobioside was suctioned, followed by the injection of the sample from the sample injection nozzle 32a into the sample injection port 8. In FIGS. 8A and 8B, the peaks indicated by the broken lines are the peaks obtained when p-nitrophenyl-di-N-acetyl-β-chitobioside alone was injected into the sample injection port. The peaks of p-nitrophenyl-di-N-acetyl-β-chitobioside appear in different locations in FIGS. 8A and Bbecause the scale on the horizontal axis differs, but the retention time is identical in both graphs.", "data": [{"compound": "CC(=O)N[C@H]1[C@H](Oc2ccc([N+](=O)[O-])cc2)O[C@H](CO)[C@@H](O[C@@H]2O[C@H](CO)[C@@H](O)[C@H](O)[C@H]2NC(C)=O)[C@@H]1O", "note": "[p-nitrophenyl-di-N-acetyl-β-chitobioside]", "values": [{"measurement": "bonding state with WGA judged from elution time (FIG. 8B)", "setting": "reactive compound (5 μL) injected first, then WGA (30 μL), separately, reaction within the size-excluding column", "result": "shifted to the location of the elution time for WGA"}, {"measurement": "bonding state with WGA judged from elution time (FIG. 8A)", "setting": "target and reactive compound mixed beforehand and injected as a reaction solution, WGA 1 mg/mL, compound 0.1 mg/mL", "result": "has been dissociated from WGA"}]}]}
